Results reported in patent US20240188569A1, “NEW YEAST STRAIN AND ITS USES FOR THE CONTROL OF PHYTOPATHOGENS” (AGROVENTURES LLC, priority 2021, published 2024).

Test system: PT22AV
Assay: Minimum inhibitory concentration of fungicides in NYDA agar
Conditions: resistance level of PT22AV to the fungicide

SMILES: N#Cc1c[nH]cc1-c1cccc2c1OC(F)(F)O2 [Fludioxonil]
- Resistance level: Resistant
